Experimental data as given in patent EP2818472A1, “Imidazo[4,5-c]pyridine and pyrrolo[3,2-c]pyridine compounds as G-protein-coupled receptor kinase 5 (GRK5) modulators” (Max-Planck-Gesellschaft zur Förderung der Wissenschaften …, priority 2013, dated 2014).

The compounds below were run on beta-TC6 cells (assay: Insulin HTRF assay (relative activity Ar) in beta-TC6 cells). Details: Mus musculus, Beta-TC6, 4 h, insulin HTRF, supernatant of beta-TC6 cells, incubation with test compound at 37°C for 2, 3, 4h; read-out: Ar (relative activity).
Type: cell-based, mouse
How it was run: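 beta-TC6 cells (15k/well, seeded 24 or 48 h) washed, then exposed to compound in induction buffer (0.5% DMSO final) for 2, 3 or 4 h at 37°C.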

| SMILES | Emax [%] |
| --- | --- |
| COCCCNc1nccc2[nH]c(-c3ccc4c(c3)OCCO4)nc12 [Compound 420, 2-(2,3-dihydro-1,4-benzodioxin-6-yl)-N-(3-methoxypropyl)-1H-imidazo[4,5-c]pyridin-4-amine] | 30 to 50 |
| COc1cc(Nc2nccc3[nH]c(-c4ccncc4)nc23)cc(OC)c1OC [Compound 421, 2-(4-pyridyl)-N-(3,4,5-trimethoxyphenyl)-1H-imidazo[4,5-c]pyridin-4-amine] | 50 to 100 |
| COc1cccc(Nc2nccc3[nH]c(-c4ccncc4)nc23)c1 [Compound 422, N-(3-methoxyphenyl)-2-(4-pyridyl)-1H-imidazo[4,5-c]pyridin-4-amine] | 30 to 50 |
| COc1ccc(Nc2nccc3[nH]c(-c4ccncc4)nc23)cc1OC [Compound 423, N-(3,4-dimethoxyphenyl)-2-(4-pyridyl)-1H-imidazo[4,5-c]pyridin-4-amine] | > 100 |
| Clc1cccc(Nc2nccc3[nH]c(-c4ccncc4)nc23)c1 [Compound 424, N-(3-chlorophenyl)-2-(4-pyridyl)-1H-imidazo[4,5-c]pyridin-4-amine] | 30 to 50 |
| CCN(CC)CCNC(=O)c1ccc(Nc2nccc3[nH]c(-c4ccncc4)nc23)cc1 [Compound 425, N-(2-diethylaminoethyl)-4-[[2-(4-pyridyl)-1H-imidazo[4,5-c]pyridin-4-yl]amino]benzamide] | 50 to 100 |
| CN(C)c1cccc(Nc2nccc3[nH]c(-c4ccncc4)nc23)c1 [Compound 426, N1,N1-dimethyl-N3-[2-(4-pyridyl)-1H-imidazo[4,5-c]pyridin-4-yl]benzene-1,3-diamine] | 50 to 100 |
| COc1ccc(Nc2nccc3[nH]c(-c4ccncc4)nc23)cc1 [Compound 427, N-(4-methoxyphenyl)-2-(4-pyridyl)-1H-imidazo[4,5-c]pyridin-4-amine] | 50 to 100 |
| c1ccc(CNc2nccc3[nH]c(-c4ccncc4)nc23)cc1 [Compound 428, N-benzyl-2-(4-pyridyl)-1H-imidazo[4,5-c]pyridin-4-amine] | 30 to 50 |
| CC(C)[C@H](CO)Nc1nccc2[nH]c(-c3ccncc3)nc12 [Compound 429, (2R)-3-methyl-2-[[2-(4-pyridyl)-1H-imidazo[4,5-c]pyridin-4-yl]amino]butan-1-ol] | 0 to 30 |
| CN(C)c1ccc(CNc2nccc3[nH]c(-c4ccncc4)nc23)cc1 [Compound 430, N-[(4-dimethylaminophenyl)methyl]-2-(4-pyridyl)-1H-imidazo[4,5-c]pyridin-4-amine] | 50 to 100 |
| Oc1cccc(Nc2nccc3[nH]c(-c4ccncc4)nc23)c1 [Compound 431, 3-[[2-(4-pyridyl)-1H-imidazo[4,5-c]pyridin-4-yl]amino]phenol] | 50 to 100 |
| COc1ccc(Nc2nccc3[nH]c(-c4ccncc4)nc23)cc1O [Compound 432, 2-methoxy-5-[[2-(4-pyridyl)-1H-imidazo[4,5-c]pyridin-4-yl]amino]phenol] | > 100 |
| Clc1ccc(CNc2nccc3[nH]c(-c4ccncc4)nc23)cc1 [Compound 433, N-[(4-chlorophenyl)methyl]-2-(4-pyridyl)-1H-imidazo[4,5-c]pyridin-4-amine] | 30 to 50 |
| c1ccc(CCNc2nccc3[nH]c(-c4ccncc4)nc23)cc1 [Compound 434, N-phenethyl-2-(4-pyridyl)-1H-imidazo[4,5-c]pyridin-4-amine] | 30 to 50 |
| COc1cc(Nc2nccc3[nH]c(-c4cccc(C)c4)nc23)cc(OC)c1OC [Compound 435, 2-(m-tolyl)-N-(3,4,5-trimethoxyphenyl)-1H-imidazo[4,5-c]pyridin-4-amine] | 50 to 100 |
| COc1ccc(Nc2nccc3[nH]c(-c4cccc(C)c4)nc23)cc1OC [Compound 436, N-(3,4-dimethoxyphenyl)-2-(m-tolyl)-1H-imidazo[4,5-c]pyridin-4-amine] | 50 to 100 |
| Cc1cccc(-c2nc3c(NCCc4ccccn4)nccc3[nH]2)c1 [Compound 437, 2-(m-tolyl)-N-[2-(2-pyridyl)ethyl]-1H-imidazo[4,5-c]pyridin-4-amine] | 30 to 50 |
| Cc1cccc(-c2nc3c(Nc4cccc(O)c4)nccc3[nH]2)c1 [Compound 438, 3-[[2-(m-tolyl)-1H-imidazo[4,5-c]pyridin-4-yl]amino]phenol] | 30 to 50 |
| Cc1cccc(-c2nc3c(Nc4cccc(NS(C)(=O)=O)c4)nccc3[nH]2)c1 [Compound 439, N-[3-[[2-(m-tolyl)-1H-imidazo[4,5-c]pyridin-4-yl]amino]phenyl]methanesulfonamide] | 30 to 50 |
| COc1ccc(Nc2nccc3[nH]c(-c4ccc(F)c(F)c4)nc23)cc1OC [Compound 440, 2-(3,4-difluorophenyl)-N-(3,4-dimethoxyphenyl)-1H-imidazo[4,5-c]pyridin-4-amine] | 30 to 50 |
| Oc1cccc(Nc2nccc3[nH]c(-c4ccc(F)c(F)c4)nc23)c1 [Compound 441, 3-[[2-(3,4-difluorophenyl)-1H-imidazo[4,5-c]pyridin-4-yl]amino]phenol] | 30 to 50 |
| CN1CCN(c2nccc3[nH]c(-c4cccc(OC(F)(F)F)c4)nc23)CC1 [Compound 442, 4-(4-methylpiperazin-1-yl)-2-[3-(trifluoromethoxy)phenyl]-1H-imidazo[4,5-c]pyridine] | 30 to 50 |

| SMILES | Emax [%] |
| --- | --- |
| OC1CCC(Nc2nccc3[nH]c(-c4cccc(OC(F)(F)F)c4)nc23)CC1 (stereo not drawn) [Compound 443, 4-[[2-[3-(trifluoromethoxy)phenyl]-1H-imidazo[4,5-c]pyridin-4-yl]amino]cyclohexanol] | 30 to 50 |
| COc1ccc(Nc2nccc3[nH]c(-c4cccc(OC(F)(F)F)c4)nc23)cc1O [Compound 444, 2-methoxy-5-[[2-[3-(trifluoromethoxy)phenyl]-1H-imidazo[4,5-c]pyridin-4-yl]amino]phenol] | 30 to 50 |
| FC(F)(F)Oc1cccc(-c2nc3c(NCc4ccccn4)nccc3[nH]2)c1 [Compound 445, N-(2-pyridylmethyl)-2-[3-(trifluoromethoxy)phenyl]-1H-imidazo[4,5-c]pyridin-4-amine] | 30 to 50 |
| FC(F)(F)Oc1cccc(-c2nc3c(N4CCOCC4)nccc3[nH]2)c1 [Compound 446, 4-[2-[3-(trifluoromethoxy)phenyl]-1H-imidazo[4,5-c]pyridin-4-yl]morpholine] | 30 to 50 |
| COc1ccc(Nc2nccc3c2ncn3C)cc1OC [Compound 447, N-(3,4-dimethoxyphenyl)-1-methyl-imidazo[4,5-c]pyridin-4-amine] | 50 to 100 |
| Cn1cnc2c(Nc3ccc4[nH]ccc4c3)nccc21 [Compound 448, N-(1H-indol-5-yl)-1-methyl-imidazo[4,5-c]pyridin-4-amine] | 50 to 100 |
| c1ccc(Cn2cnc3c(NC4CCCCC4)nccc32)cc1 [Compound 449, 1-benzyl-N-cyclohexyl-imidazo[4,5-c]pyridin-4-amine] | 50 to 100 |
| CN(C)c1cccc(Nc2nccc3c2ncn3C)c1 [Compound 450, N1,N1-dimethyl-N3-(1-methylimidazo[4,5-c]pyridin-4-yl)benzene-1,3-diamine] | 30 to 50 |
| c1ccc(Cn2cnc3c(NCc4ccco4)nccc32)cc1 [Compound 451, 1-benzyl-N-(2-furylmethyl)imidazo[4,5-c]pyridin-4-amine] | 0 to 30 |
| c1ccc(Cn2cnc3c(NCc4cccs4)nccc32)cc1 [Compound 452, 1-benzyl-N-(2-thienylmethyl)imidazo[4,5-c]pyridin-4-amine] | 30 to 50 |
| c1ccc(Cn2cnc3c(NCc4ccc5c(c4)OCO5)nccc32)cc1 [Compound 454, N-(1,3-benzodioxol-5-ylmethyl)-1-benzyl-imidazo[4,5-c]pyridin-4-amine] | 50 to 100 |
| COc1ccc(CNc2nccc3c2ncn3Cc2ccccc2)cc1 [Compound 455, 1-benzyl-N-[(4-methoxyphenyl)methyl]imidazo[4,5-c]pyridin-4-amine] | 0 to 30 |
| CC(C)c1ccc(Nc2nccc3c2ncn3Cc2ccccc2)cc1 [Compound 457, 1-benzyl-N-(4-isopropylphenyl)imidazo[4,5-c]pyridin-4-amine] | 30 to 50 |
| COc1ccc(Nc2nccc3[nH]c(-c4ccccc4Cl)nc23)cc1OC [Compound 458, 2-(2-chlorophenyl)-N-(3,4-dimethoxyphenyl)-1H-imidazo[4,5-c]pyridin-4-amine] | 50 to 100 |
| Clc1ccccc1-c1nc2c(NCCc3ccncc3)nccc2[nH]1 [Compound 459, 2-(2-chlorophenyl)-N-[2-(4-pyridyl)ethyl]-1H-imidazo[4,5-c]pyridin-4-amine] | 0 to 30 |
| COc1cc(CNc2nccc3[nH]c(-c4ccccc4Cl)nc23)cc(OC)c1OC [Compound 460, 2-(2-chlorophenyl)-N-[(3,4,5-trimethoxyphenyl)methyl]-1H-imidazo[4,5-c]pyridin-4-amine] | 0 to 30 |
| Fc1ccc(Nc2nccc3[nH]c(-c4ccccc4Cl)nc23)cc1Cl [Compound 461, N-(3-chloro-4-fluoro-phenyl)-2-(2-chlorophenyl)-1H-imidazo[4,5-c]pyridin-4-amine] | 0 to 30 |
| FC(F)(F)c1cccc(Nc2nccc3[nH]c(-c4ccccc4Cl)nc23)c1 [Compound 462, 2-(2-chlorophenyl)-N-[3-(trifluoromethyl)phenyl]-1H-imidazo[4,5-c]pyridin-4-amine] | 0 to 30 |
| CS(=O)(=O)Nc1cccc(Nc2nccc3[nH]c(-c4ccccc4Cl)nc23)c1 [Compound 463, N-[3-[[2-(2-chlorophenyl)-1H-imidazo[4,5-c]pyridin-4-yl]amino]phenyl]methanesulfonamide] | 30 to 50 |
| COc1cccc(Nc2nccc3[nH]c(-c4ccco4)nc23)c1 [Compound 464, 2-(2-furyl)-N-(3-methoxyphenyl)-1H-imidazo[4,5-c]pyridin-4-amine] | 30 to 50 |
| c1cncc(Nc2nccc3[nH]c(-c4ccco4)nc23)c1 [Compound 465, 2-(2-furyl)-N-(3-pyridyl)-1H-imidazo[4,5-c]pyridin-4-amine] | 0 to 30 |
| COc1ccc(Nc2nccc3[nH]c(-c4ccco4)nc23)cc1 [Compound 466, 2-(2-furyl)-N-(4-methoxyphenyl)-1H-imidazo[4,5-c]pyridin-4-amine] | 50 to 100 |
